Values joined by “and” are separate entries in the source; they are usually repeats but may differ in a detail not shown here. Identical values can stand only once. Like-named read-outs stand apart in the source and are kept apart here.

The record followed here is patent US12410157B2, “Compound useful as toll-like receptor 7 activation inhibitor” (TOYAMA PREFECTURAL UNIVERSITY, priority 2020, dated 2025).

One data set addresses T1, mouse TLR7 (Mus musculus, UniProt P58681).
T1 construct: expressed in transfected cells; host or cells: Ba/F3 cells (provided by Prof. Kensuke Miyake, University of Tokyo)
T1 sequence (P58681 27-1050): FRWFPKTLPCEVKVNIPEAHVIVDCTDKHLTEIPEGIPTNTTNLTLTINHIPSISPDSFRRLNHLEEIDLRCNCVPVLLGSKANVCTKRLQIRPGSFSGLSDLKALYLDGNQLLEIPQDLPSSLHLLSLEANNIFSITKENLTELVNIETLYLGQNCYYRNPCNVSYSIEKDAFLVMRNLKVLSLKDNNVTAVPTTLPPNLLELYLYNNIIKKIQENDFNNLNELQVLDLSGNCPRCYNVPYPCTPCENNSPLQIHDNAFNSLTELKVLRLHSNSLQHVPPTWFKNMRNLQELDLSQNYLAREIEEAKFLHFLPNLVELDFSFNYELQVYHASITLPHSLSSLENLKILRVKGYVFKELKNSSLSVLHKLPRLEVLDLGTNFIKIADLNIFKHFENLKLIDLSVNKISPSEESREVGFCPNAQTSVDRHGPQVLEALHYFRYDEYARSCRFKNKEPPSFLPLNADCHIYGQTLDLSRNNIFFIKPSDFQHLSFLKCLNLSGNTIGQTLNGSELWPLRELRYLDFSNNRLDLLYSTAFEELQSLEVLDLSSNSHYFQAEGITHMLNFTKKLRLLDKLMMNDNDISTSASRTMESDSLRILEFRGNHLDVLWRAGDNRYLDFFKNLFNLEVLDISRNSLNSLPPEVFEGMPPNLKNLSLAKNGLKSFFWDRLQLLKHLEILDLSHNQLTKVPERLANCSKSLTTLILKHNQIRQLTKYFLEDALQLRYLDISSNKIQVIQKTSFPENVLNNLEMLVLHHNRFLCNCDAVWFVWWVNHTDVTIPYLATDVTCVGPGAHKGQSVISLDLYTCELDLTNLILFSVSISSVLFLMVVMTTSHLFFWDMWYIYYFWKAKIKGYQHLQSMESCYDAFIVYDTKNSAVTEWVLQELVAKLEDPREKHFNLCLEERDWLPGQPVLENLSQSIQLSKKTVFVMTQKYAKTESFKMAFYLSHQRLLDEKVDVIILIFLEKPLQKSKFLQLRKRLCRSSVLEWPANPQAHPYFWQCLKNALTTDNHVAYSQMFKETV
Briefly: Inhibition of TLR7 activation in mouse TLR7-expressing NF-κB-GFP reporter Ba/F3 cells. The class given is cell-based. From the text:
Mouse TLR7-expressing reporter cells (Ba/F3 cells) were used to evaluate inhibition of TLR7 activation in each derivative and CB-7. These cells were provided by Professor Kensuke Miyake (Department of Infection Genetics, Institute of Medical Science, University of Tokyo). These cells have been transfected with a reporter gene that connects GFP gene downstream of the promoter region of NF-κB. Therefore, the expression of GFP is enhanced by the addition of a ligand for TLR7 expressed by the cells. The fluorescence intensity of GFP was attenuated by the addition of each derivative, and the inhibition of TLR7 activation by each derivative was evaluated as an indicator.
Loxoribine (Alexis Biochemicals) was used as the ligand for mouse TLR7. Gardiquimod (Invivogen) was used as the ligand for human TLR7.
Ba/F3 cells cultured in RPMI 1640 medium containing 10% (v/v) fetal calf serum (FCS), 50 U/mL penicillin, 50 μg/mL streptomycin, 2 mM L-glutamine, […] 2-mercaptoethanol, 1 ng/mL interleukin-3 were aliquoted into 96-well plates so that the number of cells per well was 1.0×10^5 cells/100 μL. 50 μL of each derivative or CB-7, prepared to final concentrations of 1, 5, 10, 25, 50, and 100 µM, was added to each well. 96-well plates were incubated at 37° C. for 30 minutes in the presence of 5% CO2. Next, 250 μg/mL Roxoribin was added to each well and incubated for 18 hours. At the end of incubation, cells were washed with PBS (FACS buffer) containing 2.5% (v/v) FCS and suspended in 200 μL of FACS buffer containing 25 μg/mL […] for each cell. GFP fluorescence intensities of the cells were analyzed by flow cytometry. Flow cytometry measurement was performed on a FACSCanto™ II (Becton Dickinson) and data were analyzed with FlowJo software (Tree Star). The MFI (%) upon stimulation with roxoribin in the presence of […] derivatives or CB-7 was calculated using the MFI upon stimulation with roxoribin alone as 100%, and then IC50 (chemical compound concentration that inhibits activity by 50%) was calculated by logistic regression analysis.
The evaluation of the TLR7 activation inhibition by B2-24-4-5A·HCOOH was performed by the method described in Example 2. CB-7 and B2-24-4·HCl were used as controls.

The nature of data set [1]: Plasma concentration in normal mice after oral administration. Conditions: C57BL/6N mice, 1 mg orally, LC/MS/MS. The class given is in vivo, mice (C57BL/6N). On the procedure: Plasma concentrations of CB-7 or B2-24-4-5A·HCOOH were measured in normal mice (C57BL/6N, 11 weeks old, female) after oral administration. 1 mg of CB-7 or B2-24-4-5A·HCOOH was administered orally to mice C57BL/6N. After 0.5, 1, 2, 4, or 8 hours, blood was collected from mice C57BL/6N to prepare plasma. The concentration of CB-7 or B2-24-4-5A·HCOOH in the plasma was measured by LC/MS/MS.

In data set [2] the test system is Cytochrome P450 (CYP), mouse liver microsomes. Briefly: Metabolic stability (CYP) using mouse liver microsomes, HPLC. The data set is classed as in vitro ADME. Particulars: for Area (%) of peak: LC-UV (220 nm). The protocol:
For CB-7, B2-24, and B2-5A, 10 mg/mL DMSO solution was used. Each chemical compound was diluted with acetonitrile to 0.1 mg/mL, which was used as the analytical standard. Mouse liver microsomal fractions were rapidly thawed in a warm bath at 37° C. and kept on ice. Reaction buffer containing CYP cofactor was prepared on ice and mixed with the microsomal fractions. The reaction solution was preincubated at 37° C. for 5 minutes, and then the test substance solution was added and mixed well by pipetting. The volume of the reaction solution was 200 μL and the final concentration of the test substance was 0.1 mg/mL. The reaction solution was incubated at 37° C. for 30 minutes or 2 hours, and the reaction was stopped by adding 3 times the volume of acetonitrile and vortexing. After the reaction was stopped, the samples were centrifuged, and each supernatant was separated and dried in an evaporator. 50 μL of 50% acetonitrile solution was added to each solidified sample, and each sample was re-dissolved by vortexing for 5 minutes. Each redissolved solution was centrifuged, and each supernatant was subjected to HPLC analysis using a HITACHI Lachrom ELITE (HITACHI) as a HPLC system and COSMOSIL 5C18-MS-II, 4.6 mmI.D.×150 mm (nacalai tesque Co.) as a column.
Metabolic stability analysis of CB-7 and B2-24-4-5A·HCOOH was performed by the method of Example 5.

In the case of `C=C[C@]1(CO)CC[C@@H](C(=C)C)[C@H](c2ccc(OC)cc2)C1` [CB-7, reference compound], the IC50 amounted to 3.12 µM on mouse TLR7 (Example 2, Ba/F3 reporter cells, loxoribine stimulation 18 hours, GFP MFI, read-out: IC50 of CB-7 derivatives with modified Areas a and b); 7.66 µM at mouse TLR7 (Example 5, Table 5, method of Example 2, read-out: IC50). In data set [1], the “Plasma concentration after 8 hours” value was “could not be detected”. The “Number of peaks detected by HPLC” value was found to be 7 in data set [2] (Example 3, 0.1 mg/mL, 37° C., 30 minutes or 2 hours) and 9 in data set [2] (Example 9). The “Area (%) of peak” value is 100% in data set [2] (Example 9, 0 h); 65.3% in data set [2] (Example 9, incubation 0.5 h); 41.6% and 41.2% in data set [2] (Example 9, incubation 2.0 h).

As a reminder, the IC50 is the concentration at which inhibition is half-maximal.
